In ChEMBL document CHEMBL1201862, “PubChem BioAssay data set” (2004):
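Following 48 hours of exposure in 96-well plates, responses at five concentrations were used to interpolate endpoints linearly. The concentration for 50% growth inhibition is given as GI50.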 Calls of active or inactive are those of the source. Cut-off read from the data, not from the text of the source: active = GI50 up to about 1.1 µM and inactive = higher.

Experiments:
Assay in all cases: NCI-60 cell line screen, 48 h
[1] = system: XF498
[2] = system: DMS-114
[3] = system: DMS-273
[4] = system: M19-MEL
[5] = system: HOP-18
[6] = system: SNB-78
[7] = system: MDA-N
[8] = system: T47D

Measured: GI50

CC(C)=CC(=O)OC1C2C(C)C(=O)OC2C(O)C(C)C2C=CC(=O)C21C (configuration not stated)
inactive: [1] 5.08 µM | [2] 2.58 µM | [3] 4.25 µM | [4] 3.01 µM | [5] 6.67 µM | [6] 3.24 µM

CC1=C(C(=O)NNC(=O)C(N)=O)CC(C(=O)NNC(=O)C(N)=O)=C(C)N1
inactive: [7] > 100 µM | [8] > 100 µM

CCOC(=O)c1c(-c2ccccc2)c(-c2ccccc2)cn1C
inactive: [7] > 10 µM

O=CC1CCCc2ccccc21 (configuration not stated)
inactive: [1] > 100 µM | [2] > 47.3 µM | [3] > 100 µM | [4] > 100 µM | [5] > 100 µM | [6] > 100 µM

N#CC1(C#N)C2=C(CCCC2)NC(c2ccc(Br)cc2)C1(C#N)C#N (configuration not stated)
inactive: [7] 4.26 µM | [8] 2.26 µM

Cc1cccc(NC(=O)/C=C/c2ccccc2)c1C
inactive: [7] > 100 µM | [8] > 100 µM

CC(C)CCCCCCCCCCCCC(=O)NCC(=O)NC1C(C)OC(Nc2ncnc3c2ncn3C)C(O)C1O (configuration not stated)
inactive: [1] 3.56 µM | [2] 7.82 µM | [3] 1.81 µM | [4] 11.4 µM | [5] 2.48 µM | [6] 4.72 µM

COc1ccc(/C=C/C(=N\NC(=O)c2ccccc2)c2sc(Nc3ccc([N+](=O)[O-])cc3)nc2C)cc1OC
inactive: [1] 10.3 µM | [2] 15.1 µM | [3] 12.5 µM | [4] 12.6 µM | [5] 27.7 µM | [6] 8.55 µM

Cc1ccc(-n2c(=O)c3nn4c(=O)n(-c5ccc(C)cc5)c(=O)c4nn3c2=O)cc1
inactive: [7] > 100 µM | [8] > 100 µM

CC(C)(C)[Si](C)(C)OCC1OC(n2cnc3c(N)ncnc32)C2OC(=S)OC12 (configuration not stated)
inactive: [7] 27.2 µM

COc1ccc(C2C(Cl)C(=O)N2NC(=O)c2ccc(N)cc2)cc1 (configuration not stated)
inactive: [1] > 100 µM | [2] > 100 µM | [3] > 100 µM | [4] > 100 µM | [6] > 100 µM

COc1cc(/C=C2/SC(c3ccccc3)N(c3cccc(Cl)c3)C2=O)cc(OC)c1OC (configuration not stated)
inactive: [7] 16.3 µM | [8] 25.5 µM

COc1cc(OC)c(C#N)c(OC)c1C
inactive: [1] 5.62 µM | [2] > 100 µM | [3] > 100 µM | [4] > 100 µM | [6] > 100 µM

COc1ccc(C2Oc3cc(OC)c(O)cc3[C@@H]2C)cc1 (some centres not stated)
inactive: [1] 16.9 µM | [2] 18.7 µM | [3] 29.4 µM | [4] > 10 µM | [5] 5.05 µM | [6] > 100 µM

O=Cc1cn(C(=O)c2ccccc2)c2ccccc12
inactive: [2] 60.1 µM | [3] > 100 µM | [4] > 100 µM | [6] 36.9 µM

Cn1c(=O)n(CC2CS2)c2ccccc21 (configuration not stated)
inactive: [1] > 100 µM | [2] 50.9 µM | [3] > 100 µM | [4] > 100 µM

CC(C(=O)O)c1ccc(-n2nnc3c(=O)[nH][nH]c(=O)c32)cc1 (configuration not stated)
inactive: [7] > 100 µM

CCOC(=O)NC(C(F)(F)F)(C(F)(F)F)P(=O)(OC(C)C)OC(C)C
inactive: [7] > 100 µM

CCOC(OC1=C(C#N)CCCC1)C(CC)[Se]c1ccccc1[N+](=O)[O-] (configuration not stated)
inactive: [1] 30.2 µM | [2] 15.7 µM | [3] 20.9 µM | [4] 19.1 µM | [5] 26.5 µM | [6] 25.5 µM

NC(=O)N/N=C1\CC2C3CC4C2C4C13 (configuration not stated)
inactive: [7] > 100 µM | [8] > 100 µM

CCOC(=O)c1c(SCc2ccccc2)nc2c3ccccc3ccn12
inactive: [7] > 100 µM | [8] > 100 µM

c1ccc2c(c1)CCCN1CCc3ccccc3C21 (configuration not stated)
inactive: [7] 27 µM | [8] > 100 µM

CC(C)(CC1(C)NC(=O)NC1=O)OCc1ccccc1 (configuration not stated)
inactive: [8] > 100 µM

Oc1cc(-c2ccc(F)cc2)nc2ncccc12
inactive: [8] 48.1 µM

CN(C)CCC(/C=C/c1ccccc1)=N\Nc1c(F)c(F)c(F)c(F)c1F
inactive: [2] 21.7 µM | [3] 36.8 µM | [4] 39.4 µM | [5] 44.1 µM | [6] 50.9 µM

CN(CC(=O)N1CC(CCl)c2ccc([N+](=O)[O-])cc21)CC(=O)N1CC(CCl)c2ccc([N+](=O)[O-])cc21 (configuration not stated)
inactive: [7] > 100 µM
